Results reported in patent publication US12707888B2, “Asymmetric donor-acceptor molecular dyes” (THE UNIVERSITY OF NORTH CAROLINA AT CHARLOTTE, priority 2019, dated 2026).

Legend:
[1] = Temperature studies of emission in MeTHF (thermofluorochromism); type: physicochemical; conditions: for wavelength of emission: 10 μM in MeTHF
Description: In an extension of sensing the surrounding polarity, the dependence of the wavelength of emission as a function of temperature and pH were also explored. For these efforts, Bu2N-TTz-Py was chosen as a focal representative of the asymmetric TTzs for its solubility, amphiphilicity, high Stokes shifts, and otherwise similar photophysical characteristics. For the temperature studies, a 10 μM MeTHF solution of Bu2N-TTz-Py was prepared and the emission of the solution was monitored from −196-60° C. MeTHF was chosen for its wide liquid temperature window and ability to form a glass upon freezing; most other solvents crystallize upon solidification and inhibit fluorescence. The low temperature studies were achieved using various liquid N2 cooling baths (see Experimental). Due to the condensation of atmospheric moisture during low-temperature testing, only the normalized emission intensities are reported. […] At temperatures near the freezing point of MeTHF and below, however, the wavelength of emission rapidly blue-shifts from 559 to 544 to 503 nm at −131, −136, and −196° C., respectively.
4-pyridine carboxaldehyde, 4-(dibutylamino)benzaldehyde, 4-(diphenylamino)benzaldehyde, terephthalaldehyde, dithiooxamide, and all solvents used for spectroscopic measurements were purchased from Sigma-Aldrich and used without further purification. ^1H and ^13CNMR measurements were obtained with either a JEOL 300 MHz NMR or a JEOL 500 MHz NMR. High resolution mass spectra were obtained using a Thermo Fisher Scientific MSQ Plus Single Quadrupole Mass Spectrometer. Solution-state UV-Vis spectra were collected on a Cary 300 UV-Vis spectrophotometer. Time-resolved measurements were taken on a Jobin Yvon-Spex Fluorolog equipped with a 389 nm diode laser for time-resolved PL decay measurements. Igor Pro 6.3 software was used to fit PL(t) decay data to single/multiple exponential decays. Quantum yields were calculated using 9,10-diphenylanthracene as a reference (quantum yield [ΦF] in cyclohexane=0.97).^40-41 Density functional theory (DFT) calculations were performed with Spartan computational software using B3LYP^42-43 density functional and 6-31G*^44 basis set. Temperature studies were conducted using a 10 μM Bu2N-TTz-Py MeTHF solution placed inside of a Norrell 502 NMR tube and sequentially submerged in the following liquid N2 baths:octanol (−16° C.), acetonitrile (−41° C.), acetone (−94° C.), pentane (−131° C.), MeTHF (−136° C.), and liquid N2 itself (−196° C.). The phosphorescence spectrum of Bu2N-TTz-Py (see S2) was collected similarly at −196° C. by pumping with 389 nm light while inside a liquid nitrogen bath and then probing the emission within 2 sec of removing from the bath. Human embryonic kidney cells (HEK 293T) were a kind gift from Prof. Bryan Dickinson, and Mouse macrophage J774A.1 cells were a kind gift from Prof. Deborah Nelson at the University of Chicago. Cells were cultured in Dulbecco's Modified Eagle's Medium (Invitrogen Corporation, USA) containing 10% heat inactivated Fetal Bovine Serum (FBS) (Invitrogen Corporation, USA), 100 U/mL penicillin, and 100 μg/mL streptomycin. Cells were maintained at 37° C. under 5% CO2.

HEK 293T cells [2] = experiment: Whole-cell patch clamp voltage sensitivity; type: cell-based, Human; conditions: 500 nM dye, cells held at −60 mV, 10 mV steps
Description: Having established its environmental sensitivity and proclivity for membrane localization, it was hypothesized that Bu2N-TTz-Py could orient itself favorably within cell membranes and sense voltage differentials across the membrane. To test the membrane voltage sensitivity of Bu2N-TTz-Py, whole-cell patch clamp electrophysiology was performed on HEK 293T cells labeled with 500 nM Bu2N-TTz-Py. […] Tests concluded that Bu2N-TTz-Py has a voltage sensitivity of approximately 10% ΔF/F per 100 mV. For context, early generation VSDs, such as RH-421, ANNINE-6, and VF2.1.Cl, display maximum voltage sensitivities of 10%-25% ΔF/F per 100 mV.
Cell labeled spectral measurements. Excitation and emission spectra were collected by labeling the alveolar macrophage cell line J774.A1 (~0.5×10^5 cells) with 1 μM Bu2N-TTz-Py in phosphate buffered saline (PBS) buffer and 0.1% TritonX-100. Cells were incubated with dye for 10 min at RT, washed thrice with PBS, and dispersed in a cuvette for fluorescent spectral measurements (Fluoromax-4, Horiba Scientific, Edison, NJ, USA). Excitation spectra were collected at 520 nm emission. Emission spectra were collected by exciting at 440 nm. Electrophysiology. […]

HEK 293T cells [3] = experiment: Photostability under continuous illumination in cells; type: cell-based, Human
Description: FIG. 12B details photostability of Bu2N-TTz-Py and VF2.1.Cl in HEK 293T cells (illuminated using λ=440 nm at […]) and their representative pseudo-gray scale images under continuous illumination at wavelength of maximum excitation. Error bars a/b represent the standard error of mean (S.E.M.) for 3 independent experiments, n=12 total cells. Scale bar=10 μm.
Microscopy. Imaging was carried out on an IX83 inverted microscope (Olympus Corporation of the Americas, Center Valley, PA, USA) using 100×, 1.4 NA, DIC oil immersion objective (PLAPON, Olympus) and an Evolve Delta 512 EMCCD camera (Photometrics, USA). Filter wheel, shutter, and CCD camera were controlled using Metamorph premier Ver 7.8.12.0 (Molecular Devices, LLC, USA). For photostability studies, HEK 293T cells were labeled with 500 nM Bu2N-TTz-Py and illuminated continuously with ~5 W cm^−2 power light source, periodically acquiring images at 1 min interval. Bu2N-TTz-Py channel images were obtained using 480/20 bandpass excitation filter, 575/40 bandpass emission filter and 89016 dichroic. VF2.1.Cl channel images were obtained using 500/20 bandpass excitation filter, 535/40 bandpass emission filter and 69002 dichroic. For CellMask™ red, images were obtained using the 640/30 bandpass excitation filter, 705/72 bandpass emission filter and 89016 dichroic.

[4] = Solubility in aqueous environments; type: physicochemical

## CCCCN(CCCC)c1ccc(-c2nc3sc(-c4ccncc4)nc3s2)cc1 [Bu2N-TTz-Py, 2-(N,N-dibutyl-4-aminophenyl)-5-(4-pyridyl) thiazolo[5,4-d]thiazole]
[1]; 60° C.
  wavelength of emission: 519 nm
[1]; −131° C.
  wavelength of emission: 559 nm
[1]; −136° C.
  wavelength of emission: 544 nm
[1]; −196° C.
  wavelength of emission: 503 nm
[1]; TTz/MeTHF solution, liquid range of MeTHF
  temperature sensitivity of emission wavelength: −0.21 nm ° C.^−1
HEK 293T cells [2]
  voltage sensitivity: approximately 10 % ΔF/F per 100 mV
HEK 293T cells [3]; @ 440 nm LED
  molar absorptivity ε: 15,000-20,000 cm^−1 M^−1
HEK 293T cells [3]; in the same amount of time (approx. 7.5 minutes), I=5 W cm^−2, 440 nm LED
  decay of fluorescence intensity: less than 10%
[4]
  solubility in aqueous environments: poor solubility
